The record followed here is patent publication US8809335B2, “Pyrazolopyrimidine kinase inhibitors” (Vertex Pharmaceuticals Incorporated, priority 2010, dated 2014).

Holding throughout (type): biochemical
One experiment deals with PKC alpha kinase (Homo sapiens, UniProt P17252). The experiment in a line: PKC alpha coupled-enzyme kinase assay (NADH consumption). The settings on record: 130 μM ATP, 4.5 nM PKC alpha, 30° C. The procedure:
An assay buffer solution was prepared which consisted of 100 mM HEPES (pH 7.5), 10 mM MgCl2, 25 mM NaCl, 0.1 mM EDTA, 100 μM CaCl2 and 0.01% Brij. An enzyme buffer containing reagents to final assay concentrations of 0.002% Triton X-100, 100 μg/mL Phosphatidylserine, 20 μg/mL Diacylglycerol, 360 μM NADH, 3 mM phosphoenolpyruvate, 70 μg/mL pyruvate kinase, 24 μg/mL lactate dehydrogenase, 2 mM DTT, 150 μM substrate peptide (RRRRRKGSFKRKA SEQ ID NO. 1) and 4.5 nM PKC alpha kinase was prepared in assay buffer. To 16 μL of this enzyme buffer, in a 384 well plate, was added 1 μL of VRT stock solution in DMSO. The mixture was allowed to equilibrate for 10 mins at 30° C. The enzyme reaction was initiated by the addition of 16 μL stock ATP solution prepared in assay buffer to a final assay concentration of 130 μM. Initial rate data was determined from the rate of change of absorbance at 340 nm (corresponding to stoichiometric consumption of NADH) using a Molecular Devices Spectramax plate reader (Sunnyvale, Calif.) over 15 mins at 30° C. […] Ki values were calculated from initial rate data by non-linear regression using the Prism software package (Prism 4.0a, Graphpad Software, San Diego, Calif.).

The next experiment addresses PKC theta kinase (Homo sapiens, UniProt Q04759). The experiment in a line: PKC theta coupled-enzyme kinase assay (NADH consumption). Particulars: 240 μM ATP, 18 nM PKC theta, 30° C. The procedure: An assay buffer solution was prepared which consisted of 100 mM HEPES (pH 7.5), 10 mM MgCl2, 25 mM NaCl, 0.1 mM EDTA and 0.01% Brij. An enzyme buffer containing reagents to final assay concentrations of 0.00001% Triton X-100, 200 μg/mL Phosphatidylserine, 20 μg/mL Diacylglycerol, 360 μM NADH, 3 mM phosphoenolpyruvate, 70 μg/mL pyruvate kinase, 24 μg/mL lactate dehydrogenase, 2 mM DTT, 100 μM substrate peptide (ERMRPRKRQGSVRRRV SEQ ID NO. 1) and 18 nM PKC theta kinase was prepared in assay buffer. To 60 μL of this enzyme buffer, in a 384 well plate, was added 2 μL of VRT stock solution in DMSO. The mixture was allowed to equilibrate for 10 mins at 30° C. The enzyme reaction was initiated by the addition of 5 μL stock ATP solution prepared in assay buffer to a final assay concentration of 240 μM. Initial rate data was determined from the rate of change of absorbance at 340 nm (corresponding to stoichiometric consumption of NADH) using a Molecular Devices Spectramax plate reader (Sunnyvale, Calif.) over 15 mins at 30° C. For each Ki determination 12 data points covering the VRT concentration range of 0-20 μM were obtained in duplicate (DMSO stocks were prepared from an initial 10 mM VRT stock with subsequent 1:2 serial dilutions). Ki values were calculated from initial rate data by non-linear regression using the Prism software package (Prism 4.0a, Graphpad Software, San Diego, Calif.).

The target of a further experiment is PKC delta kinase (Homo sapiens, UniProt Q05655). The experiment in a line: PKC delta coupled-enzyme kinase assay (NADH consumption). The settings on record: 150 μM ATP, 46 nM PKC delta, 30° C. The procedure:
An assay buffer solution was prepared which consisted of 100 mM HEPES (pH 7.5), 10 mM MgCl2, 25 mM NaCl, 0.1 mM EDTA and 0.01% Brij. An enzyme buffer containing reagents to final assay concentrations of 0.002% Triton X-100, 200 μg/mL Phosphatidylserine, 20 μg/mL Diacylglycerol, 360 μM NADH, 3 mM phosphoenolpyruvate, 70 μg/mL pyruvate kinase, 24 μg/mL lactate dehydrogenase, 2 mM DTT, 150 μM substrate peptide (ERMRPRKRQGSVRRRV SEQ ID NO. 2) and 46 nM PKC delta kinase was prepared in assay buffer. To 16 μL of this enzyme buffer, in a 384 well plate, was added 1 μL of VRT stock solution in DMSO. The mixture was allowed to equilibrate for 10 mins at 30° C. The enzyme reaction was initiated by the addition of 16 μL stock ATP solution prepared in assay buffer to a final assay concentration of 150 μM. Initial rate data was determined from the rate of change of absorbance at 340 nm (corresponding to stoichiometric consumption of NADH) using a Molecular Devices Spectramax plate reader (Sunnyvale, Calif.) over 15 mins at 30° C. For each Ki determination 12 data points covering the VRT concentration range of 0-20 μM were obtained in duplicate (DMSO stocks were prepared from an initial 10 mM VRT stock with subsequent 1:2 serial dilutions). Ki values were calculated from initial rate data by non-linear regression using the Prism software package (Prism 4.0a, Graphpad Software, San Diego, Calif.).

PKC theta kinase, sequence (Q04759 whole entry): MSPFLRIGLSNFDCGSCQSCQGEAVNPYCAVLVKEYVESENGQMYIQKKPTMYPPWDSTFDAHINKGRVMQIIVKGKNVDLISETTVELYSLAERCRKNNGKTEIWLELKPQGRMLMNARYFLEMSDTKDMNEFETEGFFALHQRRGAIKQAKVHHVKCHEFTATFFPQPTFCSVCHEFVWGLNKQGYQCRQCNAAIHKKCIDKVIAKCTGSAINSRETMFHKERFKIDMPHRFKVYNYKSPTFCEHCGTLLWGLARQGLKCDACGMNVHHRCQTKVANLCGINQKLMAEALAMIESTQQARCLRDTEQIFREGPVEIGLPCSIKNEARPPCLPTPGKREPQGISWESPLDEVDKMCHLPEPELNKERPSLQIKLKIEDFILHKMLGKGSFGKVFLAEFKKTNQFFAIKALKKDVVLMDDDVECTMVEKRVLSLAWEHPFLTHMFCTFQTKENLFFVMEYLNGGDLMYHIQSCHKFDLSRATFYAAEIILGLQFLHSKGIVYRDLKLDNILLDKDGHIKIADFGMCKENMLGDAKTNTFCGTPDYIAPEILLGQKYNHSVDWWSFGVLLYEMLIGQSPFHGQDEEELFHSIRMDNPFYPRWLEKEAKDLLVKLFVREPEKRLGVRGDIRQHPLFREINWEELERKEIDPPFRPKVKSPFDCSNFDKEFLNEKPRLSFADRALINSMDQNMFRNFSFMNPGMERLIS
PKC delta kinase, sequence (Q05655 whole entry): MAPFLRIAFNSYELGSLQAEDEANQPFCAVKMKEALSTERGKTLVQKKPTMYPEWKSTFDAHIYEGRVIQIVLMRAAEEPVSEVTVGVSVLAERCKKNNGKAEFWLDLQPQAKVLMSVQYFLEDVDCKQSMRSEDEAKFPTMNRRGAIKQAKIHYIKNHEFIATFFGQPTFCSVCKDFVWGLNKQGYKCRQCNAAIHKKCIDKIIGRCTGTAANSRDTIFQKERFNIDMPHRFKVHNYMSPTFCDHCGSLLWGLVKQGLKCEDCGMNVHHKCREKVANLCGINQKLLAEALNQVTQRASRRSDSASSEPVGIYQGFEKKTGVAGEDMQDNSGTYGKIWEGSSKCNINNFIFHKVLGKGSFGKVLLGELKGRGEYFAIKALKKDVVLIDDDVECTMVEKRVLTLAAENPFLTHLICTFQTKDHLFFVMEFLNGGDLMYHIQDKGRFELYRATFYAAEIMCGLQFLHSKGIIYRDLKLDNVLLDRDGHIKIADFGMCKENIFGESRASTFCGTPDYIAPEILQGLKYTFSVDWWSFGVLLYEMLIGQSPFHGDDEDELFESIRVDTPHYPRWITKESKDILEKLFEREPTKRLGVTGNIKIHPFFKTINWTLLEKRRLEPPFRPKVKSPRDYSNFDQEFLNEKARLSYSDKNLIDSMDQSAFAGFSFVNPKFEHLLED

As for `CCOc1ncnc2[nH]nc(-c3cccc(N4CCNC(CC(C)C)C4)n3)c12` (stereo not drawn) [Compound 1, 4-ethoxy-3-(6-(3-isobutylpiperazin-1-yl)pyridin-2-yl)-1H-pyrazolo[3,4-d]pyrimidine], the Ki is above 1250 nM on PKC alpha kinase, below 2800 nM at PKC theta kinase and above 1250 nM at PKC delta kinase.
`CC(C)[C@@](C)(O)[C@@H]1CN(c2nc(-c3n[nH]c4ncncc34)c(F)cc2F)CCN1` [Compound 2, (R)-2-((S)-4-(3,5-difluoro-6-(1H-pyrazolo[3,4-d]pyrimidin-3-yl)pyridin-2-yl)piperazin-2-yl)-3-methylbutan-2-ol]: the results for the Ki at PKC alpha kinase, on PKC theta kinase and on PKC delta kinase were below 2800 nM, below 1 nM and below 500 nM, respectively.
